Experimental data as given in ChEMBL document CHEMBL1123991 (J Med Chem, 1988).

What was measured:
Rattus norvegicus [1] = assay: Regional uptake of [125I]- (S)-N-(1-Ethyl-pyrrolidin-2-ylmethyl)-5-iodo-2-methoxy-benzamide in rat striatum 60 min after intravenous administration; format: functional, organism-based
[2] = Ratio of uptake of [125I]- (S)-N-(1-Ethyl-pyrrolidin-2-ylmethyl)-5-iodo-2-methoxy-benzamide in striatum:frontal cortex; 4.7:1; format: functional
[3] = Ratio of uptake of [125I]- (S)-N-(1-Ethyl-pyrrolidin-2-ylmethyl)-5-iodo-2-methoxy-benzamide in striatum:striatum; 1.0:1; format: functional
Rattus norvegicus [4] = assay: Regional uptake of [125I]- (S)-N-(1-Ethyl-pyrrolidin-2-ylmethyl)-5-iodo-2-methoxy-benzamide in rat cerebellum 60 min after intravenous administration; format: functional, organism-based
[5] = Ratio of uptake of [125I]- (S)-N-(1-Ethyl-pyrrolidin-2-ylmethyl)-5-iodo-2-methoxy-benzamide in striatum:cerebellum; 7.2:1; format: functional
Rattus norvegicus [6] = assay: Regional uptake of [125I]- (S)-N-(1-Ethyl-pyrrolidin-2-ylmethyl)-5-iodo-2-methoxy-benzamide in rat frontal cortex 60 min after intravenous administration; format: functional, organism-based
D(2) dopamine receptor = D(2) dopamine receptor (Rattus norvegicus, UniProt P61169); assay: Inhibition of 0.1 nM of [125I]- (S)-N-(1-Ethyl-pyrrolidin-2-ylmethyl)-5-iodo-2-methoxy-benzamide binding in striatal homogenates of rat brain; format: tissue-based
D(2) dopamine receptor, sequence (P61169 whole entry): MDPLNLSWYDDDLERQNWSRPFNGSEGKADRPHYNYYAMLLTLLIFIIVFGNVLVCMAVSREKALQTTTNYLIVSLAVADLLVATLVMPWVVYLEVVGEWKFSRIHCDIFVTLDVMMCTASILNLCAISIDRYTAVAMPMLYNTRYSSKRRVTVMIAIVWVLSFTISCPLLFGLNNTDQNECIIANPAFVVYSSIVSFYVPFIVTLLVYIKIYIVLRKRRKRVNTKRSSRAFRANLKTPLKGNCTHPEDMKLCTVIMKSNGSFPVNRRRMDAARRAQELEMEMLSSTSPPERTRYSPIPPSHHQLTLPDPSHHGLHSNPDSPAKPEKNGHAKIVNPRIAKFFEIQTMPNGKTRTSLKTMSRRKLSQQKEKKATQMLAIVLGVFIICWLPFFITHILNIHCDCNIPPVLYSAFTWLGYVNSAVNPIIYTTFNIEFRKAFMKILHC

| Compound | Radioactivity (Rattus norvegicus [1]) [nCi g-1] | Ratio [2] | Ratio [3] | Radioactivity (Rattus norvegicus [4]) [nCi g-1] | Ratio [5] | Radioactivity (Rattus norvegicus [6]) [nCi g-1] | IC50 (D(2) dopamine receptor) [nM] |
| --- | --- | --- | --- | --- | --- | --- | --- |
| CCN1CCC[C@@H]1CNC(=O)c1cc(I)ccc1OC | 56.2 | 4.7 | 1 | 7.8 | 7.2 | 11.9 | 113 |
| CCN1CCC[C@H]1CNC(=O)c1cc(I)ccc1OC [IODOPRIDE] | – | – | – | – | – | – | 1.5 |
